Results reported in article PMC5571359, “Screening the Medicines for Malaria Venture Pathogen Box across Multiple Pathogens Reclassifies Starting Points for Open-Source Drug Discovery” (Antimicrobial Agents and Chemotherapy, 2017).
Read-outs that look alike come from different tables or passages of the source.

What was measured:
[1] = tested on: HepG2; settings: cited from earlier work
[2] = tested on: P. falciparum ABS; settings: cited from earlier work; for EC50: ChEMBL Data; for IC50: read-out: Pf 3D7 Pbox IC50
[3] = tested on: liver stage; settings: cited from earlier work
[4] = tested on: HEK293 cells; experiment: HEK293 resazurin cell cytotoxicity assay; settings: Homo sapiens; for IC50: HEK293, read-out: HEK % Inhibition 20uM/IC50 Discovery Biology (IA)
[5] = tested on: T. b. brucei 427 bloodstream trypanosomes; experiment: T. b. brucei resazurin viability assay; type: cell-based, Trypanosoma brucei brucei; settings: Trypanosoma brucei; PBox compounds; read-out: IC50 T. brucei brucei (Discovery Biology)
[6] = read-out: HepG2 PBox CC50 µM, HepG2 CC50, ref Pathogen Box supporting information
[7] = NITD, read-out: NITD (ref 94) EC50
[8] = Pf 3D7, ref Pathogen Box supporting information
[9] = liver stage, ref Pathogen Box supporting information, read-out: LIVER STAGE Pbox IC50
[10] = TCMDC, read-out: TCMDC (ref 93) EX50
[11] = read-out: HepG2 PBox CC50 µM, ref PBox supporting information
[12] = P. falciparum, read-out: TCMDC (ref 93) EX50
[13] = P. falciparum 3D7, ref PBox supporting information
[14] = ref Pbox supporting information
[15] = P. falciparum, read-out: NITD (ref 94) EC50

Compound | CC50 [1, 6] [µM] | IC50 [2, 8] [nM] | IC50 [3, 9] [nM] | EC50 [2, 10] [nM] | CC50 [1, 11] [µM] | IC50 [2, 13] [nM] | IC50 [3, 14] [nM] | other results
O=C1Nc2ccc(Br)cc2C12NCCc1c2[nH]c2ccccc12 (centres unmarked) [MMV006239] | > 10 | 510 | > 10000 | – | – | – | – | EC50 [2, 7]: 200 nM
CCOc1ccc(-c2nc(NC(=O)CS(=O)(=O)c3ccccc3)sc2C)cc1 [MMV007638] | > 10 | 660 | > 10000 | 510 | – | – | – | EC50 [2, 7]: 530 nM
Nc1ccc(C(=O)Nc2ccc(-c3nc4ccccc4o3)cc2)cc1 [MMV007920] | > 10 | 1550 | > 10000 | – | – | – | – | EC50 [2, 7]: 940 nM
COc1ccc(CN2CCOc3ccc(C(C)(O)CN(C)C)cc3C2)cc1C (centres unmarked) [MMV008439] | > 10 | > 2000 | 930 | – | – | – | – | EC50 [2, 7]: 820 nM
Cc1cc(C(=O)Nc2cnn(Cc3ccc(Cl)cc3Cl)c2)no1 [MMV009054] | > 10 | 1880 | 1390 | – | – | – | – | EC50 [2, 7]: 620 nM
c1csc(-c2cnc3sc(NCC4CCOCC4)nn23)c1 [MMV010764] | > 10 | 1370 | > 10000 | – | – | – | – | –
NCC(=O)N1CCn2c(nc(-c3ccccc3)c2Nc2ccc3c(c2)OCO3)C1 [MMV011691] | – | 640 | 3780 | – | – | – | – | CC50 [1]: > 10 µM; EC50 [2, 7]: 160 nM
Cc1cc(C)n2nc(C(=O)Nc3cc(C(F)(F)F)ccc3N3CCOCC3)nc2n1 [MMV019087] | > 10 | 220 | 1210 | 120 | – | – | – | –
Cc1ccc(S(=O)(=O)N2CCN(C(=O)c3cc(-c4ccccc4)n[nH]3)CC2)cc1 [MMV019742] | > 10 | 1040 | 630 | 600 | – | – | – | –
CC1CC1C(=O)NC1CCN(CC2(c3ccccc3)CCCCC2)CC1 (centres unmarked) [MMV020120] | > 10 | 580 | 2250 | 640 | – | – | – | –
Cc1cc(C(=O)Nc2ccc(-c3ccccc3)cc2)no1 [MMV020152] | > 10 | 820 | > 10000 | 690 | – | – | – | –
Cc1ccc(NC(=O)c2cc(S(=O)(=O)NC(C)(C)C)ccc2C)nc1 [MMV020289] | > 7.5 | 930 | 7350 | 760 | – | – | – | –
Cc1nnc(NC(=O)c2cn(-c3ccccc3)nc2-c2ccccc2C)o1 [MMV020320] | > 10 | 710 | 170 | 570 | – | – | – | –
Cc1ccc(Oc2ccc(NC(=O)CNc3ccccc3N3CCCC3=O)cc2)cc1 [MMV020512] | 9.8 | 480 | 9100 | 370 | – | – | – | –
O=C(NC1CC1)c1ccc(N2CCOc3ccc(Cl)cc32)s1 [MMV020537] | > 10 | 1030 | 3480 | 800 | – | – | – | –
CC(C)C(NC(=O)Cc1cccc2ccccc12)C(=O)Nc1cccc(C#N)c1 (centres unmarked) [MMV020591] | > 10 | 960 | 9150 | 660 | – | – | – | –
Cc1nc(-c2cccc(NCc3ccccc3)c2)[nH]c1C [MMV023227] | > 10 | 1940 | 4590 | 860 | – | – | – | –
O=C(NC1CCN(c2ccnc3ccccc23)C1)c1cccc(C(F)(F)F)c1 (centres unmarked) [MMV023388] | > 10 | 710 | 6540 | 900 | – | – | – | –
NS(=O)(=O)c1cncc(-c2ccc3nccc(-c4cn[nH]c4)c3n2)c1 [MMV024101] | – | 600 | 2170 | 530 | – | – | – | –
Cc1ccc(S(=O)(=O)n2cc(-c3ccnc(N)c3)c3cc(Br)cnc32)cc1 [MMV024114] | > 6 | 630 | > 6000 | 900 | – | – | – | inhibition at 20 µM ([4]; HEK293, read-out: HEK % Inhibition 20uM/IC50 Discovery Biology): 60%

Compound | CC50 [1, 6] [µM] | IC50 [2, 8] [nM] | IC50 [3, 9] [nM] | EC50 [2, 10] [nM] | CC50 [1, 11] [µM] | IC50 [2, 13] [nM] | IC50 [3, 14] [nM] | other results
CN(C)CCNC(=O)N1CCCN(c2ncnc3cc(-c4ccccc4)sc23)CC1 [MMV024195] | > 10 | 1580 | 1970 | 790 | – | – | – | –
O=C(NC1CC1)c1ccc(N2CCC(Cc3ccccc3)CC2)nc1 [MMV024397] | > 10 | 1330 | 1410 | 760 | – | – | – | –
O=C(Nc1cccc(Cl)c1)c1cnc(N2CCN(c3ccncc3)CC2)c(Cl)c1 [MMV024406] | > 10 | 830 | 2350 | 960 | – | – | – | –
Cc1cccc(C(=O)Nc2ccnc(N(C)C3CCN(CC(C)C)CC3)c2)c1 [MMV024829] | – | 2100 | > 10000 | 870 | – | – | – | CC50 [1]: > 10 µM
O=C(Nc1ccc(N2CCNCC2)nc1)c1oc(-c2ccccc2)nc1C(F)(F)F [MMV024937] | > 10 | 1220 | 2550 | 980 | – | – | – | –
Nc1nccc2ccc(Oc3ccncc3)cc12 [MMV026313] | – | – | – | – | > 10 | 230 | > 10000 | EC50 [2, 12]: 480 nM
OCCc1ccc(Nc2nccc(-c3nnc4ccccn34)n2)cc1 [MMV028694] | – | – | – | – | 8.1 | 1080 | 1470 | IC50 [4]: > 20000 nM; IC50 [5]: 2390 nM; EC50 [2, 12]: 900 nM
CNC(=O)C1Cc2c([nH]c3cc(Cl)ccc23)C2(CCN(CCc3ccccc3)CC2)N1 (centres unmarked) [MMV031011] | – | – | – | – | > 10 | 860 | 4510 | IC50 [4]: > 20000 nM; EC50 [2, 12]: 930 nM
FC(F)(F)c1cccc(-c2nc3c(NCc4ccncc4)nccc3[nH]2)c1 [MMV032967] | – | – | – | – | > 10 | 510 | > 10000 | –
O=C1COCc2ccc(Br)cc2N1Cc1ccc(C(F)(F)F)cc1 [MMV032995] | – | – | – | – | – | 960 | 2000 | –
O=C1N(Cc2cc3ccccc3s2)CC2CN(Cc3ccccc3)CCN12 (centres unmarked) [MMV084603] | – | – | – | – | > 10 | 1160 | 200 | EC50 [2, 15]: 440 nM
COc1cncc(-c2cncc(N3CCN(c4ccncc4)CC3)n2)c1 [MMV085071] | – | – | – | – | > 10 | 100 | > 7500 | EC50 [2, 15]: 80 nM
COc1cccc(-c2cc3c(Nc4cccnc4)nccc3[nH]2)c1 [MMV392832] | – | – | – | – | > 10 | 1280 | > 10000 | –
CCOc1ccccc1NC(C)C(=O)Nc1cc(C(F)(F)F)ccc1N1CCOCC1 (centres unmarked) [MMV407834] | – | – | – | – | > 10 | 420 | > 10000 | –
Clc1cccc(C(c2ccc(CN3CCNCC3)cc2)n2ccnc2)c1 (centres unmarked) [MMV663250] | – | – | – | – | > 10 | 1630 | > 10000 | IC50 [4]: > 20000 nM
CN1CCN(c2nccc3nc(-c4ccc(F)c(F)c4)[nH]c23)CC1 [MMV676260] | – | – | – | – | > 10 | 1130 | > 10000 | –
C[C@H](C(N)=O)N1CCCC[C@H]1c1ccc(OCc2cccc(F)c2)cc1 [MMV676269] | – | – | – | – | > 10 | > 2000 | 1360 | EC50 [2, 12]: 990 nM
Cc1cnc(CCNC(=O)c2cc(-c3ccc(Cl)cc3)cs2)[nH]1 [MMV676350] | – | – | – | – | > 10 | 810 | 8580 | EC50 [2, 12]: 240 nM
Cc1cccc(NC(=O)c2cc(S(=O)(=O)N(C)c3ccc(F)cc3)ccc2Cl)n1 [MMV676528] | – | – | – | – | > 10 | 1580 | 6770 | –
C[C@]1(O)C[C@@H](c2nc(-c3ccc4ccc(-c5ccccc5)nc4c3)c3c(N)nccn32)C1 [MMV676605] | – | – | – | – | – | > 2000 | 360 | CC50 [1]: > 10 µM
